{
  "source": "patent US5405864A",
  "about": "“Chemotherapeutic maleimides” (Syntex (U.S.A.) Inc., priority 1993, dated 1995)",
  "key": {"β1 isozyme of PKC": {"target": "T1, β1 isozyme of PKC (Rattus norvegicus, UniProt P68403)", "T1 construct": "β1 isozyme of PKC from rat brain; from tissue; host or cells: rat brain", "T1 sequence (P68403 whole entry)": "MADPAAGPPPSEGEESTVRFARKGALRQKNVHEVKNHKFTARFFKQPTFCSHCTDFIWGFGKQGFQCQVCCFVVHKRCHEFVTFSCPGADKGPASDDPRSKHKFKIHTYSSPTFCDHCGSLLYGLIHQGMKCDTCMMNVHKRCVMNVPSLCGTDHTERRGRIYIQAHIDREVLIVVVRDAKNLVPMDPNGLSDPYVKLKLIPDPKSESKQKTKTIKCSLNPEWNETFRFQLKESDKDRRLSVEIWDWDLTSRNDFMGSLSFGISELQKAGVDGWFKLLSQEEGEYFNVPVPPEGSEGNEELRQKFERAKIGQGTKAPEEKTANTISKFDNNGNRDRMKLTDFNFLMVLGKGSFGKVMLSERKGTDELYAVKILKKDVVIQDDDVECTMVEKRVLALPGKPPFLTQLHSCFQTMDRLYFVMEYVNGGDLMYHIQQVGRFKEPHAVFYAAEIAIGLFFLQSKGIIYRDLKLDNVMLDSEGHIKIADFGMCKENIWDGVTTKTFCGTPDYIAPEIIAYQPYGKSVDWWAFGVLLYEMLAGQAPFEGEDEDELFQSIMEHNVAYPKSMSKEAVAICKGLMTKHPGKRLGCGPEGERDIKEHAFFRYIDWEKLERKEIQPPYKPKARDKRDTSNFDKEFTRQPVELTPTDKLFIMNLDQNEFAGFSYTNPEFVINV", "experiment": "Protein kinase C inhibition assay (32P incorporation from γ-32P ATP into synthetic peptide substrate)", "type": "biochemical", "settings": "β1 isozyme of PKC from rat brain; 50 μM ATP; five minutes at room temperature", "protocol": "In vitro activity for protein kinase C inhibition, is quantitated by measuring incorporation of ^32 P from γ-^32 P ATP into synthetic peptide substrates.\nProtein Kinase C (PKC) inhibitory activity is quantitated by measuring incorporation of ^32 P from γ-^32 P ATP into synthetic peptide substrates. The inhibitory potential is measured using the β1 isozyme of PKC from rat brain and the synthetic peptide substrate ala-lys-arg-arg-arg-leu-ser-ser-leu-arg-ala.\nA reaction mixture containing 25 mM Tris-HCl, pH 7.5, 2.5 mM Mg(NO3), 1.0 mM EGTA, 20 μM substrate, 1 μg/mL phosphatidylserine (PS), 5×10^-6 M diacylglycerol(di-C8), and 50 μM ATP is spiked with γ-^32 P ATP (>5,000 Ci/mmol) to provide approximately 10^6 CPM per reaction and 0.08 μg/mL PKC in a 50 μl volume per well. The assay is run with or without test compound, added at various concentrations. After five minutes incubation at room temperature, the reaction is stopped by the addition of 0.2V of a 50% TCA solution. A 30 μl sample from each well (control and test compound) is then spotted onto Whatman P-81 ion exchange chromatography paper, and 32-P incorporation is then counted on a Beckman LS 5000 TA liquid scintillation counter. The percent inhibition of PKC activated by […] diC8 and 1 μg/mL phosphatydil serine is determined according to the formula: […]\nand the concentration necessary to achieve 50% Inhibition is determined."}, "breast cell line MDA-N": {"system": "breast cell line MDA-N", "experiment": "tumor cell growth inhibition in culture, breast cell line MDA-N", "type": "cell-based", "settings": "Homo sapiens, read-out: GI50 (concentration to inhibit tumor cell growth in culture by 50%)", "text": "(§1) The compounds of the present invention are protein kinase C inhibitors useful as chemotherapeutic agents for treating mammals, particularly humans, having a variety of malignant disease states including: small cell lung carcinoma, colon carcinoma, breast tumors corresonding to MCF7, MDA-MB-435 and MDA-N cell lines, and PKC overexpressing tumors, such as those corresponding to CHO/PKC-ε. […] For example, 3-[1-(3-isothioureidopropyl)-2-(thianaphthen-2-yl)indol-3-yl]-1H-pyrrole-2,5-dione has a GI50 (concentration to inhibit tumor cell growth in culture by 50%) of […] against breast cell line MDA-N versus 1 μM against colon carcinoma cell line HT-29."}, "[1]": {"system": "colon carcinoma cell line HT-29", "experiment": "tumor cell growth inhibition in culture, colon carcinoma cell line HT-29", "type": "cell-based", "settings": "Homo sapiens, read-out: GI50 (concentration to inhibit tumor cell growth in culture by 50%)", "text": "as §1"}, "[2]": {"system": "H82 small cell lung carcinoma (SCLC) cells", "experiment": "Small Cell Lung Carcinoma Xenograft Assay", "type": "in vivo, Female athymic nude mice", "protocol": "(§2) In vivo activity for chemotherapeutic agents, particularly for treating malignant diseases, is determined by tumor inhibition assays, for example as described by Maneckjee, et al., in Proc. Natl. Acad. Sci. USA, Vol 89, 1169-1173 (February 1992). Variations of the assay can be performed, e.g., using HT-29 colon carcinoma cells, SCLC H82 cells, CHO/PKC-β and CHO/PKC-ε cells.\nThis procedure is a modification of a procedure described by Maneckjee, et al., in Proc. Natl. Acad. Sci. USA, Vol 89, 1169-1173 (February 1992).\n(§3) H82 small cell lung carcinoma (SCLC) cells are thawed from frozen stock and grown in RPMI. Prior to injection, the cells are trypsinized, counted, and resuspended in PBS:solubilized basement membrane preparation (Matrigel®) (1:2) to concentrations of 5×10^5 or 1.5×10^6 […]. Female athymic nude mice, 4-5 weeks old (Harlan Sprague Dawley) receive 200R/mouse irradiation one day prior to challenge, and are given 0.2 ml SCLC/mouse by subcutaneous injection in the flank (concentrations of 1×10^5 or 3×10^5 SCLC cells/mouse). Groups of 30 mice are treated intraperitoneally, once a day, with test compound at 10 mg/kg (solubilized in DMSO and diluted to final vehicle concentration of 20% DMSO in PBS). Treatments are started 2 hours post-challenge and continue for 45 days. Vehicle treated and untreated mice are used as controls.\n(§4) Statistical Analysis: A Fisher Exact test [Kendall M., Stuart A., The Advanced Theory of Statistics, Vol., 2 (MacMillan Pub. Co. N.Y., 1979)] is used to compare tumor occurrence rates between groups. The Mann Whitney U test [Hollander N., Wolfe D. A., Non-parametric Statistical Methods (John Wiley and Sons, Inc., N.Y., 1973)] is used to compare differences in survival time and a log rank test (Kalbfleisch J. D., Prentice R. L., The Statistical Analysis of Failure Time Data (John Wiley and Sons, Inc., N.Y. 1980)] is used to compare the time for each tumor to reach 2000 mm^3."}, "HT-29 colon cancer cells": {"system": "HT-29 colon cancer cells", "experiment": "Colon Carcinoma Xenograft Assay", "type": "in vivo, Female athymic nude mice", "protocol": "as §2, §3, §4\nBy following the procedure of Example 18 and substituting H82 small cell lung carcinoma cells with HT-29 colon cancer cells, grown to a concentration of 5×10^6 cells/ml and administered at a concentration of 1×10^6 cells/mouse, activity against colon carcinoma is determined."}, "[3]": {"experiment": "toxicity in mice of the Small Cell Lung Carcinoma Xenograft Assay", "type": "in vivo, Female athymic nude mice", "protocol": "as §3"}},
  "data": [
    {"smiles": "NCCCn1c(-c2cc3ccccc3s2)c(C2=CC(=O)NC2=O)c2ccccc21", "note": "[3-[1-(3-aminopropyl)-2-(thianaphthen-2-yl)indol-3-yl]-1H-pyrrole-2,5-dione]", "values": [
      {"measurement": "IC50", "setting": "β1 isozyme of PKC", "result": 40, "unit": "nM"}
    ]},
    {"smiles": "N=C(N)SCCCn1c(-c2cc3ccccc3s2)c(C2=CC(=O)NC2=O)c2ccccc21", "note": "[3-[1-(3-isothioureidopropyl)-2-(thianaphthen-2-yl)indol-3-yl]-1H-pyrrole-2,5-dione]", "values": [
      {"measurement": "GI50", "setting": "breast cell line MDA-N", "result": 10, "unit": "nM"},
      {"measurement": "IC50", "setting": "β1 isozyme of PKC", "result": 3, "unit": "nM"},
      {"measurement": "GI50", "setting": "[1]", "result": 1000, "unit": "nM"},
      {"measurement": "prevention of SCLC tumor formation (in words)", "setting": "[2]; 10 mg/kg intraperitoneally once a day, 45 days", "result": "not preventing SCLC tumor formation entirely"},
      {"measurement": "inhibition of tumor growth (in words)", "setting": "[2]; SCLC H82 xenograft, 10 mg/kg intraperitoneally once a day, 45 days", "result": "did significantly slow tumor growth"},
      {"measurement": "tumor size, fold smaller than vehicle-treated or untreated control groups", "setting": "[2]; challenge of 1×10^5 SCLC cells/mouse, 10 mg/kg i.p. once a day", "result": "~3", "unit": "fold"},
      {"measurement": "median time for the tumor volume to reach 2000 mm^3", "setting": "[2]; challenge of 1×10^5 SCLC cells/mouse, 10 mg/kg i.p. once a day, vehicle-treated control Day 35 (p<0.001)", "result": "> 42", "unit": "days"},
      {"measurement": "extension of median time for the tumor volume to reach 2000 mm^3", "setting": "[2]; challenge of 1×10^5 SCLC cells/mouse, 10 mg/kg i.p. once a day, vs vehicle-treated control Day 35 (p<0.001)", "result": "> 7", "unit": "days"},
      {"measurement": "tumor size, fold smaller than vehicle-treated or untreated control groups", "setting": "[2]; challenge of 3×10^5 SCLC cells/mouse, 10 mg/kg i.p. once a day", "result": "approximately 2 fold"},
      {"measurement": "median time for the tumor volume to reach 2000 mm^3", "setting": "[2]; challenge of 3×10^5 SCLC cells/mouse, 10 mg/kg i.p. once a day, vehicle-treated control Day 31 (p<0.001)", "result": 39, "unit": "days"},
      {"measurement": "extension of median time for the tumor volume to reach 2000 mm^3", "setting": "[2]; challenge of 3×10^5 SCLC cells/mouse, 10 mg/kg i.p. once a day, vs vehicle-treated control Day 31 (p<0.001)", "result": 8, "unit": "days"},
      {"measurement": "number of mice having tumors ≥2000 mm^3 at Day 42 of treatment (in words)", "setting": "[2]; either challenge level (3×10^5 or 1×10^5 SCLC cells/mouse), 10 mg/kg i.p. once a day, p<0.05", "result": "reduced with either challenge level"},
      {"measurement": "prevention of HT-29 tumor formation (in words)", "setting": "HT-29 colon cancer cells; 1×10^6 cells/mouse, procedure of Example 18", "result": "not preventing HT-29 tumor formation entirely"},
      {"measurement": "number of mice having tumors ≥2000 mm^3 at Day 42 of treatment (in words)", "setting": "HT-29 colon cancer cells; HT-29, 1×10^6 cells/mouse, p<0.05", "result": "reduced"},
      {"measurement": "tumor size, fold smaller than vehicle-treated or untreated control groups", "setting": "HT-29 colon cancer cells; HT-29, 1×10^6 cells/mouse, procedure of Example 18", "result": "approximately 1.5 fold"},
      {"measurement": "median time for the tumor volume to reach 2000 mm^3", "setting": "HT-29 colon cancer cells; HT-29, 1×10^6 cells/mouse, vehicle-treated control Day 33 (p<0.01)", "result": 37, "unit": "days"},
      {"measurement": "extension of median time for the tumor volume to reach 2000 mm^3", "setting": "HT-29 colon cancer cells; HT-29, 1×10^6 cells/mouse, vs vehicle-treated control Day 33 (p<0.01)", "result": 4, "unit": "days"},
      {"measurement": "inhibition of tumor growth (in words)", "setting": "HT-29 colon cancer cells; HT-29 xenograft, 1×10^6 cells/mouse, 10 mg/kg i.p. once a day (procedure of Example 18)", "result": "did significantly slow tumor growth"},
      {"measurement": "toxicity (in words)", "setting": "[3]; 10 mg/kg intraperitoneally once a day", "result": "exhibitied toxicity at 10 mg/kg"},
      {"measurement": "LD50 at 144 h", "setting": "[3]; mouse, in vivo, ip, after 6 days, read-out: chronic LD50", "result": "~20", "unit": "mg/kg"}
    ]}
  ]
}
